# Key:
# CYP17A1 [1] = target: T1, CYP17A1 (Homo sapiens, UniProt P05093); test: Inhibition of CYP17A1-mediated progesterone 17α-hydroxylation; format: biochemical; details: for increase in IC50 for CYP17A1: relative to abiraterone
# T1 sequence (P05093 with tags, fused parts or gaps limits assumed): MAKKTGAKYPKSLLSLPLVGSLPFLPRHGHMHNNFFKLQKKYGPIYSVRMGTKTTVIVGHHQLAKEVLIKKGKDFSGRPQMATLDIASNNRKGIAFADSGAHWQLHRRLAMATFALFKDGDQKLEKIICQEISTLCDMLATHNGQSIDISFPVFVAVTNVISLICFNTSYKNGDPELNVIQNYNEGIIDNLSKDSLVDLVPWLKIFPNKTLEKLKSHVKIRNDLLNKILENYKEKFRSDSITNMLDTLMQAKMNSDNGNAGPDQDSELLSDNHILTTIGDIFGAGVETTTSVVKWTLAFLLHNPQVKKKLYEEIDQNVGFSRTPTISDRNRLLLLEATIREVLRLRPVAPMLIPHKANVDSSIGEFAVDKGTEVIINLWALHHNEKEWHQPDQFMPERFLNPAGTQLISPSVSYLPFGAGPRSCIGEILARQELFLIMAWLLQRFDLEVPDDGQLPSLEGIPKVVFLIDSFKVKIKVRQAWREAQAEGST
# CYP21A2 [2] = test: Inhibition of CYP21A2-mediated progesterone 21-hydroxylation; format: biochemical, human
# CYP21A2 [3] = target: T2, CYP21A2 (Homo sapiens, UniProt P08686); test: as above; format: biochemical
# T2 sequence (P08686 with tags, fused parts or gaps): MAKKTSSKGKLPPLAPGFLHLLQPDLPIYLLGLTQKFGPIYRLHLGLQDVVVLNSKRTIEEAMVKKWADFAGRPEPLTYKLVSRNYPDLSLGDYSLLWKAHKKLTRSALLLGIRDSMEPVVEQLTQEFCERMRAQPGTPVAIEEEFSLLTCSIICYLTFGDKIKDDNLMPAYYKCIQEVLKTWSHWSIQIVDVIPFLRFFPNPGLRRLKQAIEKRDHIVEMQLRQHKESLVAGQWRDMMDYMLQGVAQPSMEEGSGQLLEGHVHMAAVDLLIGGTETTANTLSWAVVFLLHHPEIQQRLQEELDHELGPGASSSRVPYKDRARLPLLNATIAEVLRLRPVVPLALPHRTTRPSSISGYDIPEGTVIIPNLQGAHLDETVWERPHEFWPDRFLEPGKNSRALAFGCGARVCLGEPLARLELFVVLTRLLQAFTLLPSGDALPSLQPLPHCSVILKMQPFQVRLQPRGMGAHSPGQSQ
# CYP17A1 [4] = target: T1, CYP17A1; details: reported; cited from earlier work
smiles,measurement,setting,value
"C[C@]12CC[C@H](O)CC1=C(C#N)C[C@@H]1[C@@H]2CC[C@]2(C)C(c3cccnc3)=CC[C@@H]12 [compound 7, 3β-Hydroxy-17-(3-pyridyl)androsta-5,16-dien-6-carbonitrile]",increase in IC50 for CYP17A1,CYP17A1 [1],3 fold
"C[C@]12CC[C@H](O)C[C@@H]1NC(=O)C[C@@H]1[C@@H]2CC[C@]2(C)C(c3cccnc3)=CC[C@@H]12 [14b, 6-Aza-7-oxo-17-(3-pyridyl)-B-homo-5α-androst-16-en-3β-ol]",selectivity for CYP17A1 inhibition over CYP21A2 inhibition,CYP17A1 [1]; progesterone hydroxylation reactions,ca. 16 fold
"C[C@]12CCC(=O)C=C1CC[C@@H]1[C@@H]2CC[C@]2(C)C(c3cccnc3)=CC[C@@H]12 [compound 4, 17-(3-Pyridyl)androsta-4,16-dien-3-one]",selectivity for CYP21A2 over CYP17A1,CYP21A2 [2],8.8 times
same,decrease in the IC50 for CYP21A2,CYP21A2 [3]; relative to abiraterone,46 fold
same,inhibition of CYP17A1,CYP17A1 [4],comparably to abiraterone itself
"C[C@]12CC[C@H](O)CC1=CC[C@@H]1[C@@H]2CC[C@]2(C)C(c3ccccc3)=CC[C@@H]12 [3b, 17-Phenylandrosta-5,16-dien-3β-ol]",increase in IC50 for CYP21A2,CYP21A2 [3]; relative to abiraterone,> 20 fold
same,increase in IC50 for CYP17A1,CYP17A1 [1],"more than 4,000 fold"
"C[C@]12CC[C@H](O)C[C@@H]1C(=NO)C[C@@H]1[C@@H]2CC[C@]2(C)C(c3cccnc3)=CC[C@@H]12 [13b, 3β-Hydroxy-17-(3-pyridyl)-5α-androst-16-en-6-one oxime]",IC50,CYP21A2 [3],1.39 ± 0.12 µM
same,increase in IC50 for CYP21A2,CYP21A2 [3]; relative to abiraterone,43 fold
same,IC50,CYP17A1 [1],0.0165 ± 0.0025 µM
same,increase in IC50 for CYP17A1,CYP17A1 [1],ca. 3 fold
"C[C@]12CC[C@H]3[C@@H](C[C@@H]4O[C@@]45C[C@@H](O)CC[C@]35C)[C@@H]1CC=C2c1cccnc1 [6b, 5α,6α-Epoxy-17-(3-pyridyl)androst-16-en-3β-ol]",IC50,CYP21A2 [3],0.0421 ± 0.0085 µM
same,IC50,CYP17A1 [1],0.00783 ± 0.00092 µM
"C[C@]12CC[C@H](O)CC1=C(C(N)=O)C[C@@H]1[C@@H]2CC[C@]2(C)C(c3cccnc3)=CC[C@@H]12 [compound 8, 3β-Hydroxy-17-(3-pyridyl)androsta-5,16-dien-6-carboxamide]",increase in IC50 for CYP21A2,CYP21A2 [3]; relative to abiraterone,20 fold
same,increase in IC50 for CYP17A1,CYP17A1 [1],4.6 fold

# Source: article PMC6367708 (Journal of medicinal chemistry, 2018)
